Reference: patent US20200093789A1, “Cancer Treatment with a CXCL12 Signaling Inhibitor and an Immune Checkpoint Inhibitor” (The General Hospital Corporation, priority 2017, published 2020)
Entries after “also recorded” stand apart in the source; their conditions may differ.

How the values were obtained:
ID8 tumor bearing mice = experiment: Survival of ID8 tumor bearing mice (AMD3100/checkpoint inhibitor combination study); type: in vivo, C57BL/6 mice; settings: vs saline treated control; AMD3100 3 mg/kg IP every other day for three weeks alternating with αPD-1 or αPD-L1 200 μg/mouse IP; Log-rank test
Description: Luciferase-expressing ID-8 ovarian cancer cells (3×10^6 cells) were injected into C57BL/6 female mice (30/group). […] Starting three weeks post tumor inoculation, AMD3100 (3 mg/kg) was injected IP every other day for three weeks alternating with αPD-1 or αPD-L1 (200 μg/mouse) by IP injection.
Tissue Culture: The ID8 ovarian cancer cells, a kind gift from Kathy Roby (University of Kansas Medical Center, Kansas City, Kans.), were transfected with luciferase lentiviral vector and a clone stably expressing luciferase was recovered, here named Luc-ID8. Cells were maintained at 37° C. in DMEM with 2 mmol/L L-glutamine, 10 units/ml penicillin, 10 μg/ml streptomycin, and 10% fetal bovine serum in a humidified atmosphere with 5% CO2. Cells were cultured until 80% confluent, then harvested with Trypsin EDTA (Mediatech) for animal injections.
Treatment Agents: AMD3100 was purchased from Abcam. 10 mg power was dissolved in 16.7 ml saline to achieve concentration of 0.6 mg/ml and 100 μl was injected for each treatment. Anti-mouse PD-1 and anti-mouse PD-L1 were purchased from Biocell. […]

[1] = system: tumor-infiltrated lymphocytes; experiment: Flow cytometry immune profiling of tumor-infiltrating lymphocytes from ID8 tumors a week after the last treatment; type: in vivo, C57BL/6 mice; settings: vs saline control
Description: Luciferase-expressing ID-8 ovarian cancer cells (3×10^6 cells) were injected into C57BL/6 female mice (30/group). Tumor initiation was confirmed 20 days later by IVIS imaging, and tumor-bearing animals were randomized into the treatment groups indicated in Table 2. Starting three weeks post tumor inoculation, AMD3100 (3 mg/kg) was injected IP every other day for three weeks alternating with αPD-1 or αPD-L1 (200 μg/mouse) by IP injection. 3 mg/kg AMD3100 is the murine equivalent of the approved human dose of 0.24 mg/kg based on allometric scaling.
Some animals from each treatment group were euthanized by i.p. administration of Ketamine (9 mg/ml in saline) and Xylazine (0.9 mg/ml in saline) a week after the last treatment for evaluation of tumor-infiltrating lymphocytes. Tumors were harvested and processed for immune profiling.
Flow cytometry: Tumors were mechanically disaggregated using razor blades, and cells were further separated by incubation at 37° C. for 2 hours in RPMI 1640 with collagenase type IV (2 mg/ml, Sigma), hyaluronidase (0.1 mg/ml, Sigma), and BSA (2 mg/ml, Sigma). Cell suspensions were passed through 100 μm filters to remove any remaining aggregates. Cells were washed with staining buffer (Biolegend) and stained with conjugated antibodies. All live cells were determined by the LIVE/DEAD® staining (ThermoFisher). Intracellular protein detection was realized by fixation/permeabilization reagents from BioLegend or eBioscience. Flow cytometry were performed using BD LSRFortessa X-20 (BD Biosciences) and data were analyzed by FlowJo V10.
Assessment of Results: Prism 6.0 software (GraphPad Software) was used for all statistical analyses. Statistical differences between three or more experimental groups were analyzed using Two-Way ANOVA, followed by Tukey's multiple comparison tests or Student T tests. Survival was analyzed with the Log-rank test.

[2] = system: intratumoral FoxP3+ regulatory T cells (Treg); settings: literature statement; cited from earlier work
[3] = percentage of total CD8+ T cells in tumors

c1cc(CN2CCCNCCNCCCNCC2)ccc1CN1CCCNCCNCCCNCC1 [AMD3100, AMD3100 (plerixafor)]
survival time of ID8 tumor bearing mice (ID8 tumor bearing mice): significantly extended
proportions of CD40L+IL-2+ cells in CD4+FoxP3+CD25− population (helper-like T cells) ([1]; in tumors): significantly increased; also recorded: promoted replacement of Tregs by helper T cells
proportions of intratumor Tregs ([1]; percent of total CD4+ T cells in tumors): significantly reduced; also recorded: decreased
IFN-γ expression in intratumor CD8+ T cells [1, 3]: significantly increased; also recorded: enhanced
intratumor CD8+ memory T cells (CD27+CD44+ population in TILs) [1, 3]: significantly increased
levels of intratumoral FoxP3+ regulatory T cells (Treg) [2]: can be reduced
